Values after ≈ are worked out from the molar mass of the structure shown.
Experiments:
Experiment in all cases: in vitro antibacterial activity (MIC), agar dilution
Format in all cases: cell-based
[1] = system: Nocardia Asteroides ATCC9970; conditions: organism code VV; BHI agar, 35-37° C., 20 to 24 hours; unit assumed
Experimental: (§1) Representative compounds of the present invention were assayed in vitro for antibacterial activity as follows: Twelve petri dishes containing successive aqueous dilutions of the test compound mixed with 10 mL of sterilized Brain Heart Infusion (BHI) agar (Difco 0418-01-5) were prepared. Each plate was inoculated with 1:100 (or 1:10 for slow-growing strains, such as Micrococcus and Streptococcus) dilutions of up to 32 different microorganisms, using a Steers replicator block. […] In addition, a control plate, using BHI agar containing no test compound, was prepared and incubated at the beginning and end of each test.
(§2) An additional plate containing a compound having known susceptibility patterns for the organisms being tested and belonging to the same antibiotic class as the test compound was also prepared and incubated as a further control, as well as to provide test-to-test comparability.
(§3) After incubation, each plate was visually inspected. The minimum inhibitory concentration (MIC) was defined as the lowest concentration of drug yielding no growth, a slight haze, or sparsely isolated colonies on the inoculum spot as compared to the growth control.

[2] = system: Streptococcus Pneumonia ATCC6303; conditions: organism code XX; BHI agar, 35-37° C., 20 to 24 hours; unit assumed
Experimental: as §1, §2, §3

[3] = system: Staphylococcus aureus A-5278; conditions: organism code CC; BHI agar, 35-37° C., 20 to 24 hours; unit assumed
Experimental: as §1, §2, §3

[4] = system: Candida albicans CCH 442; conditions: organism code TT; BHI agar, 35-37° C., 20 to 24 hours; unit assumed
Experimental: as §1, §2, §3

[5] = system: Haemophilis Influenzae DILL AMP R; conditions: organism code WW; BHI agar, 35-37° C., 20 to 24 hours; unit assumed
Experimental: as §1, §2, §3

[6] = system: Staphylococcus aureus ATCC 6538P; conditions: organism code AA; BHI agar, 35-37° C., 20 to 24 hours; unit assumed
Experimental: as §1, §2, §3

[7] = system: Micrococcus luteus ATCC 4698; conditions: organism code PP; BHI agar, 35-37° C., 20 to 24 hours; unit assumed
Experimental: as §1, §2, §3

[8] = system: Staphylococcus aureus NCTC10649M; conditions: organism code EE; BHI agar, 35-37° C., 20 to 24 hours; unit assumed
Experimental: as §1, §2, §3

[9] = system: Streptococcus Pneumonia 5649; conditions: organism code ZZA; BHI agar, 35-37° C., 20 to 24 hours; unit assumed
Experimental: as §1, §2, §3

[10] = system: Streptococcus pyogenes EES61; conditions: organism code LL; BHI agar, 35-37° C., 20 to 24 hours; unit assumed
Experimental: as §1, §2, §3

[11] = system: Mycobacterium smegmatis ATCC 114; conditions: organism code UU; BHI agar, 35-37° C., 20 to 24 hours; unit assumed
Experimental: as §1, §2, §3

[12] = system: Streptococcus pyogenes 930; conditions: organism code MM; BHI agar, 35-37° C., 20 to 24 hours; unit assumed
Experimental: as §1, §2, §3

[13] = system: Streptococcus bovis A-5169; conditions: organism code JJ; BHI agar, 35-37° C., 20 to 24 hours; unit assumed
Experimental: as §1, §2, §3

[14] = system: Staphylococcus aureus A5177; conditions: organism code BB; BHI agar, 35-37° C., 20 to 24 hours; unit assumed
Experimental: as §1, §2, §3

[15] = system: Streptococcus Pneumonia 5979; conditions: organism code ZZ; BHI agar, 35-37° C., 20 to 24 hours; unit assumed
Experimental: as §1, §2, §3

[16] = system: Streptococcus agalactiae CMX 508; conditions: organism code KK; BHI agar, 35-37° C., 20 to 24 hours; unit assumed
Experimental: as §1, §2, §3

[17] = system: Streptococcus pyogenes PIU 2548; conditions: organism code NN; BHI agar, 35-37° C., 20 to 24 hours; unit assumed
Experimental: as §1, §2, §3

[18] = system: Staphylococcus epidermidis 3519; conditions: organism code HH; BHI agar, 35-37° C., 20 to 24 hours; unit assumed
Experimental: as §1, §2, §3

[19] = system: Escherichia coli SS; conditions: organism code RR; BHI agar, 35-37° C., 20 to 24 hours; unit assumed
Experimental: as §1, §2, §3

[20] = system: Streptococcus Pneumonia GYR 1171; conditions: organism code YY; BHI agar, 35-37° C., 20 to 24 hours; unit assumed
Experimental: as §1, §2, §3

[21] = system: Escherichia coli JUHL; conditions: organism code QQ; BHI agar, 35-37° C., 20 to 24 hours; unit assumed
Experimental: as §1, §2, §3

[22] = system: Staphylococcus aureus 1775; conditions: organism code GG; BHI agar, 35-37° C., 20 to 24 hours; unit assumed
Experimental: as §1, §2, §3

[23] = system: Staphylococcus aureus CMX 553; conditions: organism code FF; BHI agar, 35-37° C., 20 to 24 hours; unit assumed
Experimental: as §1, §2, §3

[24] = system: Staphylococcus aureus CMX 642A; conditions: organism code DD; BHI agar, 35-37° C., 20 to 24 hours; unit assumed
Experimental: as §1, §2, §3

[25] = system: Enterococcus faecium ATCC 8043; conditions: organism code II; BHI agar, 35-37° C., 20 to 24 hours; unit assumed
Experimental: as §1, §2, §3

Compound	MIC [1] [µg/mL]	MIC [2] [µg/mL]	MIC [3] [µg/mL]	MIC [4] [µg/mL]	MIC [5] [µg/mL]	MIC [6] [µg/mL]	MIC [7] [µg/mL]	MIC [8] [µg/mL]	MIC [9] [µg/mL]	MIC [10] [µg/mL]	MIC [11] [µg/mL]	MIC [12] [µg/mL]	MIC [13] [µg/mL]	MIC [14] [µg/mL]	MIC [16] [µg/mL]	MIC [17] [µg/mL]	MIC [18] [µg/mL]	MIC [19] [µg/mL]	MIC [21] [µg/mL]	MIC [22] [µg/mL]	other results
CC[C@H]1OC(=O)[C@H](C)C(=O)[C@H](C)[C@@H](O[C@@H]2O[C@H](C)C[C@H](N(C)C)[C@H]2O)[C@](C)(OCC#Cc2ccc(-c3cscn3)s2)C[C@@H](C)C(=O)[C@H](C)[C@H]2NC(=O)O[C@@]21C [Example 30]	0.01 (≈ 0.0125 µM)	≤ 0.004	> 100	> 100	2 (≈ 2.49 µM)	0.02 (≈ 0.0249 µM)	0.1 (≈ 0.125 µM)	0.05 (≈ 0.0623 µM)	0.25 (≈ 0.312 µM)	0.02 (≈ 0.0249 µM)	0.39 (≈ 0.486 µM)	6.2 (≈ 7.73 µM)	≤ 0.005	0.02 (≈ 0.0249 µM)	0.02 (≈ 0.0249 µM)	0.1 (≈ 0.125 µM)	0.05 (≈ 0.0623 µM)	0.1 (≈ 0.125 µM)	12.5 (≈ 15.6 µM)	> 100	MIC [15]: 1 µg/mL (≈ 1.25 µM); MIC [20]: ≤ 0.004 µg/mL
CC[C@H]1OC(=O)[C@H](C)C(=O)[C@H](C)[C@@H](O[C@@H]2O[C@H](C)C[C@H](N(C)C)[C@H]2O)[C@](C)(OCC#Cc2ccc(-c3ccccn3)s2)C[C@@H](C)C2=NCCN3C(=O)O[C@@]1(C)[C@H]3[C@H]2C [Example 35]	0.02 (≈ 0.0244 µM)	≤ 0.004	> 100	> 100	4 (≈ 4.87 µM)	0.05 (≈ 0.0609 µM)	0.2 (≈ 0.244 µM)	0.2 (≈ 0.244 µM)	0.25 (≈ 0.304 µM)	0.02 (≈ 0.0244 µM)	0.2 (≈ 0.244 µM)	6.2 (≈ 7.55 µM)	0.01 (≈ 0.0122 µM)	0.1 (≈ 0.122 µM)	0.05 (≈ 0.0609 µM)	0.2 (≈ 0.244 µM)	0.1 (≈ 0.122 µM)	0.39 (≈ 0.475 µM)	25 (≈ 30.4 µM)	> 100	MIC [15]: 4 µg/mL (≈ 4.87 µM); MIC [20]: ≤ 0.004 µg/mL
CC[C@H]1OC(=O)[C@H](C)C(=O)[C@H](C)[C@@H](O[C@@H]2O[C@H](C)C[C@H](N(C)C)[C@H]2O)[C@](C)(OCC#Cc2ccc(-c3cccnc3)s2)C[C@@H](C)C(=O)[C@H](C)[C@H]2NC(=O)O[C@@]21C [Example 2]	0.05 (≈ 0.0628 µM)					0.05 (≈ 0.0628 µM)	0.1 (≈ 0.126 µM)	0.05 (≈ 0.0628 µM)						0.05 (≈ 0.0628 µM)		0.1 (≈ 0.126 µM)	0.05 (≈ 0.0628 µM)	0.1 (≈ 0.126 µM)			MIC [23]: 0.05 µg/mL (≈ 0.0628 µM); MIC [24]: 0.05 µg/mL (≈ 0.0628 µM); MIC [25]: 0.05 µg/mL (≈ 0.0628 µM)
CC[C@H]1OC(=O)[C@H](C)C(=O)[C@H](C)[C@@H](O[C@@H]2O[C@H](C)C[C@H](N(C)C)[C@H]2O)[C@](C)(OC/C=C/c2ccc(-c3ccncn3)s2)C[C@@H](C)C(=O)[C@H](C)[C@H]2NC(=O)O[C@@]21C [Example 64]	0.01 (≈ 0.0125 µM)	≤ 0.004	> 100	> 100	2 (≈ 2.5 µM)	0.05 (≈ 0.0626 µM)	0.2 (≈ 0.25 µM)	0.05 (≈ 0.0626 µM)	0.25 (≈ 0.313 µM)	0.01 (≈ 0.0125 µM)	0.78 (≈ 0.976 µM)	3.1 (≈ 3.88 µM)	≤ 0.005	0.05 (≈ 0.0626 µM)	0.02 (≈ 0.025 µM)	0.1 (≈ 0.125 µM)	0.05 (≈ 0.0626 µM)	0.39 (≈ 0.488 µM)	50 (≈ 62.6 µM)	> 100	MIC [15]: 2 µg/mL (≈ 2.5 µM); MIC [20]: ≤ 0.004 µg/mL
CC[C@H]1OC(=O)[C@H](C)C(=O)[C@H](C)[C@@H](O[C@@H]2O[C@H](C)C[C@H](N(C)C)[C@H]2O)[C@](C)(OCC#Cc2ccc(-c3ccncc3)s2)C[C@@H](C)C(=O)[C@H](C)[C@H]2NC(=O)O[C@@]21C [Example 3]	0.01 (≈ 0.0126 µM)		> 100	> 100		0.05 (≈ 0.0628 µM)	0.05 (≈ 0.0628 µM)			≤ 0.05			≤ 0.05	0.05 (≈ 0.0628 µM)	≤ 0.05	0.1 (≈ 0.126 µM)	> 100	0.2 (≈ 0.251 µM)	100 (≈ 126 µM)		MIC [24]: 0.1 µg/mL (≈ 0.126 µM)
CC[C@H]1OC(=O)[C@H](C)C(=O)[C@H](C)[C@@H](O[C@@H]2O[C@H](C)C[C@H](N(C)C)[C@H]2O)[C@](C)(OCC#Cc2ccc(-c3ccccn3)s2)C[C@@H](C)C(=O)[C@H](C)[C@H]2NC(=O)O[C@@]21C [Example 1]						0.05 (≈ 0.0628 µM)	0.1 (≈ 0.126 µM)	0.1 (≈ 0.126 µM)								0.1 (≈ 0.126 µM)	0.1 (≈ 0.126 µM)	0.1 (≈ 0.126 µM)			
CC[C@H]1OC(=O)[C@H](C)C(=O)[C@H](C)[C@@H](O[C@@H]2O[C@H](C)C[C@H](N(C)C)[C@H]2O)[C@](C)(OCC#Cc2ccc(-c3ccccn3)s2)C[C@@H](C)C(=O)[C@H](C)[C@H]2N(N)C(=O)O[C@]12C [Example 36]			> 100	> 100		0.05 (≈ 0.0617 µM)	0.1 (≈ 0.123 µM)	0.1 (≈ 0.123 µM)			1.56 (≈ 1.92 µM)			0.05 (≈ 0.0617 µM)		0.39 (≈ 0.481 µM)	0.1 (≈ 0.123 µM)	0.2 (≈ 0.247 µM)		> 100	
